Source: patent US4717722A, “Substituted 1-oxa-dethiacephalosporins as anti-inflammatory and antidegenerative agents” (Merck & Co., Inc., priority 1984, dated 1988)

target: T1, Human Polymorphonuclear Leukocyte Elastase (Homo sapiens, UniProt P08246); experiment: Inhibition of human polymorphonuclear leukocyte elastase via hydrolysis of Boc-AAPAN; assay type: biochemical; conditions: effective dosage for 50% inhibition of the enzyme activity 2 minutes after zero time; crude PMN extract, 0.2 mM Boc-AAPAN, pH 7.5; read-out: ED50 (the source's name) (converted)
T1 construct: Crude extract of human polymorphonuclear leukocytes (PMN) containing elastase activity; endogenous in cells; host or cells: human polymorphonuclear leukocytes (PMN), crude extract
T1 sequence (P08246 30-247 limits assumed): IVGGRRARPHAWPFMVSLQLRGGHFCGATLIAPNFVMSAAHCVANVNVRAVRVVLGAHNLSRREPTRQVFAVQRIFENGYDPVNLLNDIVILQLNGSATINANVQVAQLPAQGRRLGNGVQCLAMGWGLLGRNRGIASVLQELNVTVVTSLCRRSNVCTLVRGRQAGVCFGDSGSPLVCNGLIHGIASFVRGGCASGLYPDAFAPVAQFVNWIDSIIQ
Experimental: Enzyme Assays for the Inhibition of Human Polymorphonuclear Leukocyte Elastase Via Hydrolysis of N-t-Boc-alanyl-alanyl-prolylalanine-p-nitroanilide Reagents
0.05 M TES (N-tris[hydroxymethyl]methyl-2-amino-ethanesulfonic acid) Buffer, pH 7.5.
0.2 mM N-t-Boc-alanyl-alanyl-prolyl-alanine-p-nitroanilide (Boc-AAPAN).
To prepare substrate, the solid (m.w. 550) was first dissolved in 10.0 ml DMSO. Buffer at pH 7.5 was then added to a final volume of 100 ml.
Crude extract of human polymorphonuclear leukocytes (PMN) containing elastase activity.
Inhibitors (cephalosporin sulfone esters) to be tested dissolved in DMSO just before use.
To 1.0 ml of 0.2 mM Boc-AAPAN in a cuvette, 0.01-0.1 ml of DMSO with or without inhibitor was added. After mixing, a measurement was taken at 410 mμ to detect any spontaneous hydrolysis due to presence of test compound. 0.05 Milliliters of PMN extract was then added and the ΔOD/min at 410 mμ was measured and recorded. Beckman model 35 spectrophotometer was used.
Results were reported as ED50, i.e., effective dosage in micrograms per milliliter (μg/ml) for 50% inhibition of the enzyme activity 2 minutes after zero time.
The elastase activity in the crude PMN extract may vary from one preparation to another. A control of each new batch is run, and the volume added in the assay procedure is adjusted according to activity.

| IC50 [µM] | SMILES |
| --- | --- |
| ≥ 36.5 | COC(=O)C1=C(CSc2nnnn2C)COC2N1C(=O)C2(NC(=O)C(C(=O)OC)c1ccc(O)cc1)OC (stereo not shown) |
| 29 | COC1(NC(=O)C(C(=O)OCc2ccccc2)c2ccc(O)cc2)C(=O)N2C(C(=O)OCc3ccccc3)=C(C)COC21 (stereo not shown) |
| 12.7 | CC1=COC2C(NC(=O)c3ccccc3)C(=O)N2C1C(=O)OCc1ccccc1 (stereo not shown) |
| 51 | CC1=C(C(=O)OCc2ccccc2)N2C(=O)C(NC(=O)c3ccccc3)C2OC1 (stereo not shown) [C6 H5 CONH] |
